# Measurements from ChEMBL document CHEMBL1201862, “PubChem BioAssay data set” (2004).
# Activity calls are given as the source filed them.
# Key:
# [1] = general cell-killing toxicity readout – plate reader, dry powder samples, cytotoxicity control for PAX8 inhibitor project, dose response (AID 743021); type: functional, cell-based
# Paired box protein Pax-8 = Paired box protein Pax-8 (Homo sapiens, UniProt Q06710); assay: PAX8 transcriptional activity inhibition in RMG-I – RMG-I cells, luciferase, cherry-pick, dose response (AID 687027); type: functional, cell-based;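 also: luciferase reporter driven by Pax8 target thyroperoxidase promoter measured by SteadyGlo luminescence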
# [2] = viability of uninfected HEp-2 cells – cell-based, HTS, cytotoxicity control for RSV inhibitor project, dose response (AID 2410); type: functional; details: human respiratory syncytial virus
# [3] = target: T1, Voltage-gated N-type calcium channel alpha-1B subunit/Amyloid beta A4 precursor protein-binding family A member 1 (Homo sapiens, UniProt Q00975+Q02410); type: protein assay
# [4] = target: T1, Voltage-gated N-type calcium channel alpha-1B subunit/Amyloid beta A4 precursor protein-binding family A member 1; type: protein assay; remark: listed apart in the source
# [5] = target: T2, Calpain-2 catalytic subunit (Sus scrofa, UniProt P43367); assay: m-calpain protease blockers, concentration series – biochemical, fluorogenic peptide substrate, dose response (AID 1420); type: functional
# T2 sequence (P43367 whole entry): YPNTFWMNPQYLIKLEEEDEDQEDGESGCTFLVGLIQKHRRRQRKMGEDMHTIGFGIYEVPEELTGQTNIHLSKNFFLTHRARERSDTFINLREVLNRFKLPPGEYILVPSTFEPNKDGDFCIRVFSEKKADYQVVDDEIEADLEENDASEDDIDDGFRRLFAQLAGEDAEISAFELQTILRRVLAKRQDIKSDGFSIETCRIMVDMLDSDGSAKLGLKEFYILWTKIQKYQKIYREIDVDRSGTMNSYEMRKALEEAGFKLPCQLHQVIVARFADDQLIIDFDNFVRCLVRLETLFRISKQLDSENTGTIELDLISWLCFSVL
# Streptococcus = assay: GAS UMAA2166 growth inhibition – luminescence, BacTiterGlo, counter-screen for streptokinase expression inhibitor project, dose response (AID 1915); type: functional, organism-based;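 also: potency for reduction of bacterial viability or growth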
# Streptokinase A = target: T3, Streptokinase A (Streptococcus pyogenes serotype M1, UniProt P10520); assay: viability-normalized secreted streptokinase activity reduction – plasminogen activation absorbance, OD405, dose response (AID 1914); type: functional, Streptococcus pyogenes M1 GAS;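 also: secreted streptokinase activity via plasminogen activation per viability signal from cell pellet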
# T3 sequence (P10520 whole entry): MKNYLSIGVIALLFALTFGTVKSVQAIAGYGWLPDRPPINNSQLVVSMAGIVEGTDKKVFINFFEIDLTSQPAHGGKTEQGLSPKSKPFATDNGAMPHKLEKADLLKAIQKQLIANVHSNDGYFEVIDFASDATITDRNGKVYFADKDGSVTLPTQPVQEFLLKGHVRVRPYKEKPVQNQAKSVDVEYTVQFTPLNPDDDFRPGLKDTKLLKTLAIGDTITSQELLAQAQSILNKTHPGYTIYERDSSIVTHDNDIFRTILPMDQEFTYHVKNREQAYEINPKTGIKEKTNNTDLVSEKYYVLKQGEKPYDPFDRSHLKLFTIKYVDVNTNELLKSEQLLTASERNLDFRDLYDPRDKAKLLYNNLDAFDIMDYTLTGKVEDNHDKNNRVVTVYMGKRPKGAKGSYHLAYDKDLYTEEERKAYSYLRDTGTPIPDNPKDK
# [6] = system: Streptococcus sp. 'group A'; assay: Streptococcus pyogenes SK(-)GAS viability under kanamycin – luminescence, BacTiterGlo, confirmation, counter-screen for streptokinase expression inhibitor project, dose response (AID 1900); type: functional, organism-based
# [7] = viability loss in THP-1 monocytes – THP-1 cells, cytotoxicity control for Vif-APOBEC3G degradation inhibitor project, dose response (AID 1117359); type: functional; details: THP-1
# Fatty acid synthase [8] = target: T4, Fatty acid synthase (Homo sapiens, UniProt P49327); assay: inhibition of human FAS-TE enzyme activity – biochemical, endpoint fluorescence intensity, uHTS hits, dose response (AID 624327); type: functional;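 also: fluorescence from hydrolysis of an O-methyl fluorescein acyl ester substrate by the enzyme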
# Fatty acid synthase [9] = target: T4, Fatty acid synthase; assay: inhibition of human FAS-TE enzyme activity – biochemical, kinetic fluorescence intensity, dose response (AID 624326); type: functional;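 also: rate of fluorescence rise from hydrolysis of a fluorogenic O-methyl fluorescein ester substrate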
# Large T antigen = Large T antigen (Simian virus 40, UniProt P03070); type: functional, Betapolyomavirus macacae;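 also: Confirmatory-stage PubChem screen for compounds that inhibit SV40 T antigen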
# [10] = reduced cellular PGC1a acetyl-lysine signal – cell-based, cherry-picked samples, dose response (AID 720514); type: functional;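 also: potency may reflect raised or lowered acetylation signal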
# T4 sequence (P49327 whole entry): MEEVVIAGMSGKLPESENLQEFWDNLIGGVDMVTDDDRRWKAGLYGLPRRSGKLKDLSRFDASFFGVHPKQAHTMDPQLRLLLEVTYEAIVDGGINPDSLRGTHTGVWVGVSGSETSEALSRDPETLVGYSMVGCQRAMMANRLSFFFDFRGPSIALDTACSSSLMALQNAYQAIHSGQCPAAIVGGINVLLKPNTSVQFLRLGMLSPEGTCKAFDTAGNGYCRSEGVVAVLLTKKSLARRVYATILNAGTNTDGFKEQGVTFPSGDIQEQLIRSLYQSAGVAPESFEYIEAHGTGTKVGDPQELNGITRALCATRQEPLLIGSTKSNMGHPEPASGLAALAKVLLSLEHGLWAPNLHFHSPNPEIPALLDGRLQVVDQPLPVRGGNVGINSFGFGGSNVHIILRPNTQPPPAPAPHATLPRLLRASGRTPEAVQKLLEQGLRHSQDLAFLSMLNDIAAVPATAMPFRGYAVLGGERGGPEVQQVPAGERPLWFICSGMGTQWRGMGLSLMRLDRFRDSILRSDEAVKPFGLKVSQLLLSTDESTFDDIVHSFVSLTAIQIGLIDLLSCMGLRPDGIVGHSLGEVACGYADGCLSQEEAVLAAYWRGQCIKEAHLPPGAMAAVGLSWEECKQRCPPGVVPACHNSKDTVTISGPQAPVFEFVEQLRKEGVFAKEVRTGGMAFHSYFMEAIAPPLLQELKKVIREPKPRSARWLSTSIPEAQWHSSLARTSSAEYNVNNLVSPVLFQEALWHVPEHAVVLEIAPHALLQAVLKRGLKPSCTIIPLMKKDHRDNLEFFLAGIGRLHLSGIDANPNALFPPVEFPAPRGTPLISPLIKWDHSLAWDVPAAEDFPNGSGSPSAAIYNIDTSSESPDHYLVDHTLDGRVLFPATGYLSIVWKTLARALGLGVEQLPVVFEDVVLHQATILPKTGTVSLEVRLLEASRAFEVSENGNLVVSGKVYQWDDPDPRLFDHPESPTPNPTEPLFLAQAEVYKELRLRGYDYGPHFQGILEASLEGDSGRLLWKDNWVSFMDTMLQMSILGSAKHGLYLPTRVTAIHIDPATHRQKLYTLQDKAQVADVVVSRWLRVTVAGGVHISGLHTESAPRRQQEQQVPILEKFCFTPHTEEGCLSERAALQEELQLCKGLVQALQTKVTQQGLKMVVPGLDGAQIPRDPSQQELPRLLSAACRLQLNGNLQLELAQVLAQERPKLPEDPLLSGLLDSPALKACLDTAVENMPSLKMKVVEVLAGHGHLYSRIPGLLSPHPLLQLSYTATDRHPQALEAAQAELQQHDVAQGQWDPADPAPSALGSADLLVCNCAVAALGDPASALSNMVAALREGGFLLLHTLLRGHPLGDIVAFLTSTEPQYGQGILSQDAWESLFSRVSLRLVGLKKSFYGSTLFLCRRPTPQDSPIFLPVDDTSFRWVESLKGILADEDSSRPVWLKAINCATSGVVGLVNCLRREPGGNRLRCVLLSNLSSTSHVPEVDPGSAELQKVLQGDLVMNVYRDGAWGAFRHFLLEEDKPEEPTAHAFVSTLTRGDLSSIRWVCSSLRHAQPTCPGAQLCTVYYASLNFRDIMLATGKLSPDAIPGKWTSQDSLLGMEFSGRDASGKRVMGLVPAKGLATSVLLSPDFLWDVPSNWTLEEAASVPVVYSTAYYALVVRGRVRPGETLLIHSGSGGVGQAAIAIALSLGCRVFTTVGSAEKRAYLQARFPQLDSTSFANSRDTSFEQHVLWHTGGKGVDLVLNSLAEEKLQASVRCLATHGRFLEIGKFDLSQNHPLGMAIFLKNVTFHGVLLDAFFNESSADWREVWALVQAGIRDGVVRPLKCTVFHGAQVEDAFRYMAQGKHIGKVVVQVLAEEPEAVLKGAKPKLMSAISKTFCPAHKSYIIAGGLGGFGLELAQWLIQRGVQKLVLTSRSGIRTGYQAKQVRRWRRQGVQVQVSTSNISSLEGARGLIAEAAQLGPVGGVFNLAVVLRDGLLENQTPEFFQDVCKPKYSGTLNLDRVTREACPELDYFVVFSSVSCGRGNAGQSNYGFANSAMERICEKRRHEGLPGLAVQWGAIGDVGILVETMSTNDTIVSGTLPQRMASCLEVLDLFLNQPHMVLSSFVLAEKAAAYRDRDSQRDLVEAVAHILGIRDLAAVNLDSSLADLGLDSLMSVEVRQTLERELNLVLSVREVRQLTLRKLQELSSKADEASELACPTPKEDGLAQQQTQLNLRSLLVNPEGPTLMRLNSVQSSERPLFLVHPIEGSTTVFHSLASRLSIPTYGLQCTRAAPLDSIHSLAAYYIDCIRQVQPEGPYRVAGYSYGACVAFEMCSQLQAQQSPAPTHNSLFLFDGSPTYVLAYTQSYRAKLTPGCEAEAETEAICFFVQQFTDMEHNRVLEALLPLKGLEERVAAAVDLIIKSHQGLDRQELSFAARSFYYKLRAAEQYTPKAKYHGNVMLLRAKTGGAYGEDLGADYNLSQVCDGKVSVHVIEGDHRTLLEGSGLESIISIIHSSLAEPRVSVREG
# Sequence of Paired box protein Pax-8 (Q06710 whole entry): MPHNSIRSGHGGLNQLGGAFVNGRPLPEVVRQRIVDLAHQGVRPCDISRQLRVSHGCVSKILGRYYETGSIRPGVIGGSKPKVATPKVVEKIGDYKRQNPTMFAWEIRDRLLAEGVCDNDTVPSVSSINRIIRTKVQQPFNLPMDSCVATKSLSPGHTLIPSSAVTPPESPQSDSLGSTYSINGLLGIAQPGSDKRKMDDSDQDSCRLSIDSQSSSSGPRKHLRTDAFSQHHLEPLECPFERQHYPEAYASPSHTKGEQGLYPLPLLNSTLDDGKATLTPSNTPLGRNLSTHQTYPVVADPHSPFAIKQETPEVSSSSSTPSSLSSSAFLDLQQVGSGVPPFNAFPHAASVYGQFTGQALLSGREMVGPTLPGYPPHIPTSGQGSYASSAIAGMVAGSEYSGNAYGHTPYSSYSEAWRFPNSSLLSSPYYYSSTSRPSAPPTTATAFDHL
# Sequence of Large T antigen (P03070 whole entry): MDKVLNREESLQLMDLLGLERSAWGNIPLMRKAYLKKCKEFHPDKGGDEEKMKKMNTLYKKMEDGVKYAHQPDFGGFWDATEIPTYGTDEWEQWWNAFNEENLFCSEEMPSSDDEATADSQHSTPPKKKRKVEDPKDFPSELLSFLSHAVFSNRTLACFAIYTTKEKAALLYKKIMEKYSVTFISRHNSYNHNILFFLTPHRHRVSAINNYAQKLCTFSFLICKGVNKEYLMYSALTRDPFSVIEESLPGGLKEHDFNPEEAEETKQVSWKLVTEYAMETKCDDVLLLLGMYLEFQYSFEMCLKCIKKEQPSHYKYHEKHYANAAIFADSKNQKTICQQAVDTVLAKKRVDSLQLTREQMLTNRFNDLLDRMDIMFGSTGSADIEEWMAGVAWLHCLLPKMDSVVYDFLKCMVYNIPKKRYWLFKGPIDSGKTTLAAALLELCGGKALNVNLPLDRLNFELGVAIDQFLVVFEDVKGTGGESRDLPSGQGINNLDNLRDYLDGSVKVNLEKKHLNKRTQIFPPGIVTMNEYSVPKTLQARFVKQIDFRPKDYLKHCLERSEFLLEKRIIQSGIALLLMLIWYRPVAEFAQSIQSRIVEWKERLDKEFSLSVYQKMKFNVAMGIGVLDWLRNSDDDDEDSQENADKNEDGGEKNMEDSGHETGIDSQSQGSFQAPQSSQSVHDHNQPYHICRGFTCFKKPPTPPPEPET
structure (smiles),measurement,setting,value
CC1=C(N2CC2)C(=O)C(CO)=C(N2CC2)C1=O,AC50,[1],14.8 µM (active)
same,AC50,Paired box protein Pax-8,< 0.26 µM (active)
O=S(=O)(/C=C/c1ccccc1)N1CCC(c2nc(O)c3nnn(Cc4ccc(F)cc4)c3n2)CC1,IC50,cells,12 µM (active)
same,CC50,[2],19.1 µM (active)
Cc1c(Cc2ccccc2)sc(NC(=O)c2ccco2)c1C(N)=O,IC50,[3],> 50 µM (inactive)
same,IC50,[4],9.09 µM (active)
Cc1ccc2c(CC(=O)Nc3cccc(S(=O)(=O)N4CCOCC4)c3)coc2c1,IC50,[5],25.9 µM (not active)
C=CCN1C(=O)NC(=O)/C(=C(/CC)Nc2ccc(N(C)C)cc2)C1=O,EC50,Streptococcus,9.73 µM (active)
same,EC50,Streptokinase A,> 150 µM (not active)
same,EC50,[6],5.65 µM (active)
same,CC50,[7],> 40 µM (active)
Cc1nc(SCC(=O)Nc2ccccc2)c2oc3ccccc3c2n1,IC50,[5],> 50 µM (not active)
Cc1ccc([N+](=O)[O-])cc1NC(=O)C(Sc1ccccc1)c1ccccc1 (stereo not drawn),IC50,[5],> 50 µM (not active)
same,IC50,Fatty acid synthase [8],2.24 µM (active)
same,IC50,Fatty acid synthase [9],1.73 µM (active)
CCN1C(=O)/C(=C\c2ccc([N+](=O)[O-])s2)C(=O)NC1=S,IC50,Large T antigen,91.6 µM (active)
same,CC50,[7],> 40 µM (active)
CC[C@H](C)[C@H](NC(=O)c1ccc(Cl)cc1)C(=O)OCC(=O)c1ccc2c(c1)NC(=O)CO2,AC50,[10],6.76 µM (active)
